Experimental data published in the NIST ThermoML archive (doi:10.1016/j.fluid.2013.12.015).
Numbers after ± are expanded uncertainties.

Settings: Liquid, Closed cell (Static) method

Compound | vapor or sublimation pressure (283.15 K) [kPa] | vapor or sublimation pressure (293.15 K) [kPa] | vapor or sublimation pressure (303.15 K) [kPa] | vapor or sublimation pressure (313.15 K) [kPa] | vapor or sublimation pressure (323.15 K) [kPa]
C=C(F)C(F)(F)F [2,3,3,3-tetrafluoro-1-propene] | 436.5 ± 7 | 591 ± 7.1 | 780.5 ± 7.1 | 1015.6 ± 7.2 | 1300.7 ± 7.2
CC(C)C [2-methylpropane] | 222.2 ± 7 | 303.3 ± 7 | 406 ± 7 | 530.3 ± 7 | 684.4 ± 7.1
